Experimental data: patent US20120251442A1, “Methods for Treatment of Tumors by Direct Administration of a Radioisotope” (GABRIEL INSTITUTE, INC., priority 2007, published 2012)

Test: Radioisotope delivered into a drilled hole in the femur, tissue counting at two hours
Type: in vivo, Sprague Dawley rat
Description: A miniature drill was used to create a hole in the femur of an anesthetized Sprague Dawley rat. A miniature pump was used to deliver 3 μL of this Ho-166 composition into the hole created by the drill.
Two hours after the injection of the dose the rat was sacrificed and dissected. Tissues/organs excised and counted included bone (opposite femur), liver, kidneys, spleen, muscle, blood, heart, lung, pancreas as well as the injected femur. Counting was done by the use of a NaI gamma detector to determine the presence of radioactivity.
The amount of activity found in the site of injection was 92% of the injected dose. Less than 2% of the dose was found in the liver or in the rest of the bone. Total skeletal dose was determined by multiplying the % dose in the opposite femur by 25.
Ho-166 in 0.1M HCl was obtained from MURR. The pH was measured with pH paper showing a pH of about 1. The miniature drill described above in Example 6 was used to create a hole in the femur of an anesthetized Sprague Dawley rat. The miniature pump described above was used to deliver 3 μL of Ho-166 solution into the hole created by the drill. Two hours after the injection of the dose the rat was sacrificed and dissected. The amount of activity found in the site of injection was 5% of the injected dose. However 52% of the dose was found in the liver and 23% of the dose was found in the rest of the bone. Total skeletal dose was determined by multiplying the % dose in the opposite femur by 25.
The miniature drill described in Example 6 was used to create a hole in the femur of an anesthetized Sprague Dawley rat. The miniature pump described in Example 6 was used to deliver 2 μL of Sm-153-DOTMP solution into the hole created by the drill. Two hours after the injection of the dose the rat was sacrificed and dissected. The amount of activity found in the site of injection was 9% of the injected dose. None of the radioactivity was found in the liver and about 20% was found in the rest of the bone. Total skeletal dose was determined by multiplying the % dose in the opposite femur by 25. An average of 65% of the injected dose was found in the urine.

[1] = two hours after injection into femur hole

In the case of O=P([O-])(O)CN1CCN(CP(=O)([O-])O)CCN(CP(=O)(O)O)CCN(CP(=O)([O-])O)CC1.[153Sm+3] [Sm-153-DOTMP], the “Activity found in the site of injection, % of the injected dose” value [1] was 9%, the “Dose found in the liver” value [1] was “None” and the “Injected dose found in the urine” value [1] was 65%. The “Dose found in the rest of the bone” value (two hours after injection, % dose in opposite femur multiplied by 25) was “about 20%”.
